system: HBV; assay: HBV-DNA antiviral assay using HepG2.117 cells (intracellular HBV DNA by qPCR); type: cell-based, genotype D HBV; conditions: Hepatitis B virus, 72 h, HBV DNA inhibition, 3 days incubation, 2% DMSO
Outline: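 HepG2.117 cells (stable genotype D HBV, Tet-off) seeded without doxycycline, treated next day with 9-point 4-fold dilutions in 2% DMSO for 3 days at 37° C. Intracellular HBV DNA quantified by qPCR against a standard curve; viability by CellTiter-Glo ATP. EC50, EC90, CC50 from variable-slope dose-response fits versus DMSO control.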

SMILES	EC50 [nM]
Cc1ccn(-c2ccc(-n3c(=O)c4c(n5ncc(CC(C)C)c35)CN(C(=O)c3ccc(Br)c(C(F)(F)F)c3)[C@@H](C)C4)cc2)n1 (stereo in doubt) [Compound 100b, rac-(11S)-12-[4-bromo-3-(trifluoromethyl)benzoyl]-5-isobutyl-11-methyl-7-[4-(3-methylpyrazol-1-yl)phenyl]-2,3,7,12-tetrazatricyclo[7.4.0.0^2,6]trideca-1(9),3,5-trien-8-one]	500 to 5000
C[C@@H]1Cc2c(n3ncc(CC4CC4)c3n(-c3ccc(C(=O)N(C)CO)cc3)c2=O)CN1C(=O)c1ccc(Br)c(C(F)(F)F)c1 (stereo in doubt) [Compound 101, N-(hydroxymethyl)-N-methyl-4-[rac-(11R)-12-[4-bromo-3-(trifluoromethyl)benzoyl]-5-(cyclopropylmethyl)-11-methyl-8-oxo-2,3,7,12-tetrazatricyclo[7.4.0.0^2,6]trideca-1(9),3,5-trien-7-yl]benzamide]	50 to 500
CC(C)Cc1cnn2c3c(c(=O)n(-c4ccc(-c5cnnn5C)cc4)c12)C[C@@H](C)N(C(=O)c1ccc(Br)c(C(F)(F)F)c1)C3 (stereo in doubt) [Compound 102a, rac-(11R)-12-[4-bromo-3-(trifluoromethyl)benzoyl]-5-isobutyl-11-methyl-7-[4-(3-methyltriazol-4-yl)phenyl]-2,3,7,12-tetrazatricyclo[7.4.0.0^2,6]trideca-1(9),3,5-trien-8-one]	< 50
CC(C)Cc1cnn2c3c(c(=O)n(-c4ccc(-c5cnnn5C)cc4)c12)C[C@H](C)N(C(=O)c1ccc(Br)c(C(F)(F)F)c1)C3 (stereo in doubt) [Compound 102b, rac-(11S)-12-[4-bromo-3-(trifluoromethyl)benzoyl]-5-isobutyl-11-methyl-7-[4-(3-methyltriazol-4-yl)phenyl]-2,3,7,12-tetrazatricyclo[7.4.0.0^2,6]trideca-1(9),3,5-trien-8-one]	50 to 500
CNC(=O)c1ccc(-n2c(=O)c3c(n4ncc(Cc5ccccc5)c24)CN(C(=O)c2ccc(Br)c(C(F)(F)F)c2)[C@@H](C2CC2)C3)cc1 (stereo in doubt) [Compound 104a, N-methyl-4-[rac-(11R)-5-benzyl-12-[4-bromo-3-(trifluoromethyl)benzoyl]-11-cyclopropyl-8-oxo-2,3,7,12-tetrazatricyclo[7.4.0.0^2,6]trideca-1(9),3,5-trien-7-yl]benzamide]	< 50
CNC(=O)c1ccc(-n2c(=O)c3c(n4ncc(Cc5ccccc5)c24)CN(C(=O)c2ccc(Br)c(C(F)(F)F)c2)[C@H](C2CC2)C3)cc1 (stereo in doubt) [Compound 104b, N-methyl-4-[rac-(11S)-5-benzyl-12-[4-bromo-3-(trifluoromethyl)benzoyl]-11-cyclopropyl-8-oxo-2,3,7,12-tetrazatricyclo[7.4.0.0^2,6]trideca-1 (9),3,5-trien-7-yl]benzamide]	< 50
C[C@@H]1Cc2c(n3ncc(Cc4ccccc4)c3n(-c3ccc(-c4cnnn4C)cc3)c2=O)CN1C(=O)c1ccc(Br)c(C(F)(F)F)c1 (stereo in doubt) [Compound 105a, rac-(11R)-5-benzyl-12-[4-bromo-3-(trifluoromethyl)benzoyl]-11-methyl-7-[4-(3-methyltriazol-4-yl)phenyl]-2,3,7,12-tetrazatricyclo[7.4.0.0^2,6]trideca-1(9),3,5-trien-8-one]	< 50
C[C@H]1Cc2c(n3ncc(Cc4ccccc4)c3n(-c3ccc(-c4cnnn4C)cc3)c2=O)CN1C(=O)c1ccc(Br)c(C(F)(F)F)c1 (stereo in doubt) [Compound 105b, rac-(11S)-5-benzyl-12-[4-bromo-3-(trifluoromethyl)benzoyl]-11-methyl-7-[4-(3-methyltriazol-4-yl)phenyl]-2,3,7,12-tetrazatricyclo[7.4.0.0^2,6]trideca-1(9),3,5-trien-8-one]	50 to 500
